# In ChEMBL document CHEMBL3046850, “In vivo antifilarial activity of some cyclic and acylic alcohols” (2011):
# Activity calls are given as the source filed them. The rule behind the calls is not given here.
# Columns and labels:
# Acanthocheilonema viteae [1] = test: Antifilarial activity against Acanthocheilonema viteae infected Mastomys coucha assessed as sterilization of female worms at 50 mg/kg, ip for 5 days relative to control; format: functional, organism-based; design: dose 50 mg/kg
# Acanthocheilonema viteae [2] = test: Antifilarial activity against Acanthocheilonema viteae infected Mastomys coucha assessed as macrofilariacidal activity at 50 mg/kg, ip for 5 days relative to control; format: functional
# Acanthocheilonema viteae [3] = test: Antifilarial activity against Acanthocheilonema viteae infected Mastomys coucha assessed as microfilariacidal activity at 50 mg/kg, ip for 5 days relative to control; format: functional
# Acanthocheilonema viteae [4] = test: Antifilarial activity against Acanthocheilonema viteae infected Mastomys coucha assessed as sterilization of female worms at 100 mg/kg, po for 5 days relative to control; format: functional
# Acanthocheilonema viteae [5] = test: Antifilarial activity against Acanthocheilonema viteae infected Mastomys coucha assessed as macrofilariacidal activity at 200 mg/kg, ip for 5 days relative to control; format: functional; conditions: route intraperitoneal
Compound,Activity (Acanthocheilonema viteae [1]),Activity (Acanthocheilonema viteae [2]),Activity (Acanthocheilonema viteae [3]),Activity (Acanthocheilonema viteae [2]; route intraperitoneal),Activity (Acanthocheilonema viteae [3]; route intraperitoneal),Activity (Acanthocheilonema viteae [4]),Activity (Acanthocheilonema viteae [5])
CC(=O)OC(C)Nc1ccco1 (stereo not given),inactive,inactive,inactive,,,,
CC(=O)OC1CCCCC1N1CCCCC1 (stereo not given),inactive,inactive,inactive,,,,
OC1CCCCC1N1CCCCC1 (stereo not given),inactive,,inactive,88.9%,,,
OC1CCCCC1N1CCC(Cc2ccccc2)CC1 (stereo not given),inactive,inactive,inactive,,,,
CCN(CC)C(=O)N1CCN(C)CC1 [DIETHYLCARBAMAZINE],inactive,inactive,,,90%,,
CC(O)Nc1ccco1 (stereo not given),,,inactive,,,82%,81.3%
CC(=O)OC1CCCCC1N1CCOCC1 (stereo not given),inactive,inactive,inactive,,,,
CC(O)N1CCCCC1C (stereo not given),inactive,inactive,inactive,,,,
CC(=O)OC1CCCCC1N1CCC(Cc2ccccc2)CC1 (stereo not given),inactive,inactive,inactive,,,,
OC1CCCCC1Nc1ccccc1 (stereo not given),inactive,inactive,inactive,,,,
CC(=O)OC1CCCCC1N1CCN(C)CC1 (stereo not given),inactive,inactive,inactive,,,,
OC1CCCCC1N1CCOCC1 (stereo not given),inactive,inactive,inactive,,,,
CN1CCN(C2CCCCC2O)CC1 (stereo not given),inactive,,inactive,,,,
CC(=O)OC(C)N1CCC(Cc2ccccc2)CC1 (stereo not given),inactive,,inactive,,,,83.4%
CC(=O)OC(C)N1CCCCC1C (stereo not given),inactive,inactive,inactive,,,,
CC(O)N1CCC(Cc2ccccc2)CC1 (stereo not given),inactive,inactive,inactive,,,,
CC(=O)OC1CCCCC1Nc1ccccc1 (stereo not given),inactive,inactive,inactive,,,,
